Results on 8 compounds are retold here after US5750556A, “2-(aminomethyl)-3,4,7,9-tetrahydro-2H-pyrano-[2,3-E]indol-8-ones and derivatives” (priority 1996, dated 1998).

In one assay the target is T1, dopamine autoreceptor (D2 Quin.) (Rattus norvegicus, UniProt P61169).
T1 construct: homogenized rat striatal brain tissue is incubated; from tissue; host or cells: rat striatum, homogenate
T1 sequence (P61169 whole entry): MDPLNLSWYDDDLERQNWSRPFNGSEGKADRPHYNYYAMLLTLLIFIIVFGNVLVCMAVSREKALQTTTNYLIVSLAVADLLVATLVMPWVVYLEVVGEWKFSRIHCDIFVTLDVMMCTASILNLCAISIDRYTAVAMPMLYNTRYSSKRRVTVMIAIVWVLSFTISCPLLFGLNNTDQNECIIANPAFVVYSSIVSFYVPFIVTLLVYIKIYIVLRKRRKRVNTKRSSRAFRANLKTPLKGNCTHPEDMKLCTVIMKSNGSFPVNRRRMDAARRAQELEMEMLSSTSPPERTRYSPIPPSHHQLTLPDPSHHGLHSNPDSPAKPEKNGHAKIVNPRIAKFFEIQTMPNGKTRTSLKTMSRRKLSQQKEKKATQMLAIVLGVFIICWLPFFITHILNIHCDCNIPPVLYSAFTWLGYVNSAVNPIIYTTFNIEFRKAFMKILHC
Kind of assay: [3H]-quinpirole binding, rat striatal homogenate (D2 Quin., dopamine autoreceptor affinity). The note with it: homogenized rat striatal brain tissue, read-out: IC50 (nM) D2 Qmin.
In the case of `O=C1Cc2c(ccc3c2OC(CNCc2ccc(Cl)cc2)CC3)N1` (stereo not drawn) [Example 1e, 2-(4-Chloro-benzylamino-methyl)-3,4,7,9-tetrahydro-2H-pyrano[2,3-e]indol-8-one], the concentration for half-maximal inhibition (IC50) is 0.65 nM.

The target in a further assay is T2, dopamine D2 receptor (Rattus norvegicus, UniProt P61169).
T2 construct: from tissue; host or cells: limbic brain tissue, homogenate
T2 sequence (P61169 whole entry): as above
Kind of assay: [3H]-spiperidone binding, limbic brain homogenate (D2 Spiper). Particulars: homogenized limbic brain tissue. The procedure:
High affinity for the dopamine D2 receptor was established by the standard experimental test procedure of Fields, et al., Brain Res., 136, […] (1977) and Yamamura et al., ed., Neurotransmitter Receptor Binding, Raven Press, N.Y. (1978) wherein homogenized limbic brain tissue is incubated with [^3 H]-spiperidone at various concentrations of test compound, filtered washed, and shaken with Hydrofluor scintillation cocktail (National Diagnostics) and counted in a Packard 460 CD scintillation counter.
`O=C1Cc2c(ccc3c2OC(CNCc2ccccc2)CC3)N1` (single isomer, unassigned; (+)) [Example 2a, (+)-2-(benzylamino-methyl)-3,4,9-tetrhydro-2H-pyrano[2,3-e]indol-8-one] returned a 50% inhibitory concentration (IC50) of 734 nM.
As for `Cc1ccc(CNCC2CCc3ccc4c(c3O2)CC(=O)N4)c(C)c1` (stereo not drawn) [Example 1f, 2-(2,4-Dimethyl-benzylamino-methyl)-3,4,7,9-tetrahydo-2H-pyrano[2,3-e]indol-8-one], the concentration for half-maximal inhibition (IC50) came out at 392 nM.
Regarding `Cc1ccc(CNCC2CCc3ccc4c(c3O2)CC(=O)N4)cc1` (stereo not drawn) [Example 1d, 2-(4-Methyl-benzylamino-methyl)-3,4,7,9-tetrahydro-2H-pyrano[2,3-e]indol8-one], the IC50 worked out at 103 nM.
The compound `O=C1Cc2c(ccc3c2OC(CNCc2ccc(F)cc2)CC3)N1` (stereo not drawn) [Example 1b, 2-(4-Fluoro-benzylamino-methyl)-3,4,7,9-tetrahydro-2H-pyrano[2,3-e]indol-8-one] gave a 50% inhibitory concentration (IC50) of 310 nM.
Turning to `O=C1Cc2c(ccc3c2OC(CNCc2ccc(Cl)cc2)CC3)N1` (stereo not drawn) [Example 1e, 2-(4-Chloro-benzylamino-methyl)-3,4,7,9-tetrahydro-2H-pyrano[2,3-e]indol-8-one], the 50% inhibitory concentration (IC50) came out at 148 nM.
With `O=C1Cc2c(ccc3c2OC(CNCc2ccccc2)CC3)N1` (single isomer, unassigned; (-)) [Example 2b, (-)-2-(benzylamino-methyl)-3,4,7,9-tetrhydro-2H-pyrano[2,3-e]indol-8-one], the IC50 was 71.5 nM.
The same measure, in the same setting: as for `COc1ccc(CNCC2CCc3ccc4c(c3O2)CC(=O)N4)cc1` (stereo not drawn) [Example 1c, 2-(4-Methoxy-benzylamino-methyl)-3,4,7,9-tetrahydro-2H-pyrano[2,3e]indol-8-one], the figure is 295 nM; as for `O=C1Cc2c(ccc3c2OC(CNCc2ccccc2)CC3)N1` (stereo not drawn) [Example 1a, 2-(Benzylamino-methyl)-3,4,7,9-tetrahydro-2H-pyrano-[2,3-e]indol-8-one], 142 nM.
